Measurements taken from patent US20200268753A1, “PERK AND IRE-1A INHIBITORS AGAINST NEURODEVELOPMENTAL DISORDERS” (priority 2017, published 2020).

Columns and labels:
[1] = system: ZIKV; experiment: ZIKV-induced microcephaly and apoptosis after intracerebroventricular injection in mouse embryos (E12.5, analysed E18.5); format: in vivo; settings: for ZIKV-induced microcephaly / microcephalic phenotype: injected with ZIKV ICV at E12.5, E18.5 brains, vs vehicle
[2] = system: UPR effectors (PERK-ATF4 arm, IRE-1/Xbp1); experiment: qRT-PCR of UPR effector expression levels in ZIKV-infected embryonic mouse brains; format: in vivo
Text: (§1) To test the efficacy of Salubrinal and ISRIB (PERK inhibitors) in decreasing the expression levels of UPR effectors after ZIKV infection we intracerebroventricularly injected ZIKV+Salubrinal (or ISRIB) in E12.5 mouse cortices and collected brains at E18.5. These samples were stored in Trizol (Invitrogen) and RNA was extracted according to manufacturer instructions. RNA was then retro-transcribed and cDNA was used to perform qRT-PCR to quantify ZIKV and UPR effectors levels in each sample. […] The expression levels of several PERK pathway effectors were analyzed: mATF4 (FIG. 6B), mATF5 (FIG. 6C), mCHAC1 (FIG. 6D). […] (Kruskal-Wallis test, *p<0.05, ** p<0.005).
(§2) To test the efficacy of Resveratrol (IRE1a inhibitor) in decreasing the expression levels of UPR effectors after ZIKV infection we intracerebroventricularly injected ZIKV+Resveratrol in E12.5 mouse cortices and collected brains at E18.5. These samples were stored in Trizol (Invitrogen) and RNA was extracted according to manufacturer instructions. RNA was then retro-transcribed and cDNA was used to perform qRT-PCR to quantify ZIKV and UPR effectors levels in each sample. […] The expression levels of several PERK pathway effectors were analyzed: mATF4 (FIG. 7B), mATF3 (FIG. 7C), mXbp1 spliced/unspliced and mXbp1 tot (FIG. 7D), mChop (FIG. 7E).
Total RNA was obtained from micro-dissected embryonic mouse brains, and neuronal progenitors seeded in 6 well-plate culture dishes after application of Trizol according to the manufacturer's protocol (Ambion-Life Technologies, 15596018).
The quantity and quality of RNA were assessed by NanoDrop 1000 (Nano-Drop Technologies) before cDNA synthesis by SuperScript III reverse transcriptase (Invitrogen), as used according to the manufacturer's instructions. The resulting cDNA was used for quantitative PCR, using Faststart Universal SYBR Green Master (Roche) in an Applied Biosystem 7900HT Fast Real-Time PCR detection system (Applied Biosystems, Foster city, USA). The following genes of interest (GOI) were normalized to the reference genes β-actin, Glyceraldehyde-3-Phosphate dehydrogenase (GAPDH), hypoxanthine phosphoribosyltransferase 1 (HPRT1), and 36b4 ribosomal protein (36b4). Tested genes were GAPDH, HPRT1, 36B4, ACTIN, ZIKA, Atf4, Atf3, Atf5, Chac1, Chop, Sesn2, Tbr2, Neurod6, Tubb3, hPDI, Slc7a3, MX1, TLR3, HRD1, OCT4, NESTIN, PAX6, SOX1 and mPDI.

[3] = system: ZIKV; experiment: qRT-PCR quantification of ZIKV copies in ICV-injected embryonic mouse brains; format: in vivo; settings: for number of ZIKV copies: ICV co-injection with ZIKV at E12.5, brains at E18.5, vs ZIKV+DMSO, Kruskal-Wallis test
Text: as §1, §2
The number of Zika particles in the samples analyzed by qRT-PCR (see above) was calculated as previously described (Lanciotti et al, 2008). Briefly, a standard curve was created by performing serial dilutions of a plasmid containing 76-bp long sequence from the Zika genome (from nt 1,086 to 1,162; GCF_000882815.3, as indicated in Nature Neurosciences (2018) Gladwyn et al.) and querying these dilutions by qRT-PCR analysis.
This standard curve allows the conversion of Cp of samples queried for Zika virus (as described above) into N^o of Zika copies/a L. We used the following formula to link this quantification to the amount of RNA retrotranscribed for the analysis of each sample: […]
Finally, the N^o of copies/μg RNA was divided for the relative concentration of each sample analyzed by qRT-PCR (since for each analyzed gene in this study we performed a relative quantification compared to the controls of the same experiment). The relative concentration of each sample is automatically calculated by the LightCycler480 and its accompanying software.

[4] = system: ZIKV; experiment: Neurogenic balance after intracerebroventricular ZIKV injection and in utero GFP electroporation of mouse embryos; format: in vivo; settings: co-administered with ZIKV ICV at E12.5, second injection at electroporation; E14.5; vs Mock-DMSO and Mock-PERKi
Description: To test whether the deregulation of UPR induced by ZIKV-infection results in the impairment of this neurogenic balance, we performed ICV injection of ZIKV in E12.5 mouse brains, followed by in utero electroporation of GFP-expressing plasmids one day later to fate-map APs at E14.5 (APs, immature IPs and IPs, neurons) (FIGS. 3A-B). The phenotype of the “direct progeny” of targeted APs was then assessed by immunohistochemistry (FIGS. 3B-D). In order to characterize the fate of GFP+ cells, we subdivided them into APs (Sox2+, Tbr2− or Tbr2−, Tbr1−), immature IPs (Sox2+, Tbr2+ or Tbr2+, Tbr1−), IPs (Sox2−, Tbr2+ or Tbr2+, Tbr1+), or neurons (Sox2−, Tbr2− or Tbr2−, Tbr1+).
To assess if ZIKV directly impacts the neurogenic balance through UPR deregulation in GFP labeled APs, we co-injected GSK2656157 (a PERK inhibitor, named PERKi) with ZIKV into the lateral ventricles of E12.5 embryos and repeated a second PERKi injection at the time of electroporation.
Embryonic (E) 14.5, E16.5 and E18.5 mouse brains were dissected in 0.1M phosphate-buffered saline pH7.4 (PBS), and were fixed in 4% paraformaldehyde (PFA in PBS) for one hour at room temperature, whereas human neural stem cells (hNSCs) were fixed in 4% PFA at 4° C. for 10 minutes. […]

[5] = system: ZIKV; experiment: Intraplacental (IPL) ZIKV injection in pregnant NMRI mice, cortical defects at E18.5; format: in vivo, mouse; settings: intraplacental ZIKV at E12.5, co-injection
[6] = high doses, ICV co-injection with ZIKV at E12.5, brains at E18.5, vs ZIKV+DMSO
[7] = ZIKV ICV at E12.5, E18.5, compared to vehicle treatment
[8] = single injection of 50M at time of infection (E12.5), E18.5

**Q.** Which “ZIKV-induced microcephaly / microcephalic phenotype” value [1] does the source give for Cc1cc(=O)oc2c(C=O)c(O)ccc12 [4μ8C] here?
**A.** rescued the microcephalic phenotype

**Q.** What about the “activation of the PERK-ATF4 UPR arm” value ([2]; ZIKV-infected mouse brains) of the same compound?
**A.** prevented activation

**Q.** With O=C(COc1ccc(Cl)cc1)NC1CCC(NC(=O)COc2ccc(Cl)cc2)CC1 (centres unmarked) [ISRIB] as the compound, how does the “number of ZIKV copies” value [3] read?
**A.** unaffected compared to controls

**Q.** And the mATF4 expression level [2, 6]?
**A.** marked decrease

**Q.** What about the mATF5 expression level [2, 6] of the same compound?
**A.** marked decrease

**Q.** And the mCHAC1 expression level [2, 6]?
**A.** marked decrease

**Q.** What does the source list for Cc1cccc(CC(=O)N2CCc3c2ccc(-c2cn(C)c4ncnc(N)c24)c3F)n1 [PERKi]?
**A.** ZIKV particles ([3]; ZIKV-infected mouse brains treated with PERKi): not associated with a reduction; imbalance between direct and indirect neurogenesis (proportions of APs, newborn IPs, IPs and neurons) [4]: remarkably corrected the imbalance between direct and indirect neurogenesis; brain weight [1, 7]: significant improvement; cortical dimensions (brain width, length) [1, 7]: significant improvement; numbers of neurons sitting in different cortical layers [1, 7]: significant improvement; ZIKV-induced microcephaly / microcephalic phenotype [1]: reduced ZIKV-induced microcephaly; ER stress [1, 8]: decreased; apoptosis (ac-caspase 3) [1, 8]: decreased; ZIKV-induced cortical defects (cortical thickness, neuronal apoptosis, cytoarchitecture) [5]: rescued

**Q.** How did the “number of ZIKV copies” value [3] turn out when Oc1ccc(C=Cc2cc(O)cc(O)c2)cc1 [Resveratrol] was run?
**A.** unaffected compared to controls

**Q.** What about the mATF3 expression level [2, 6] of the same compound?
**A.** marked decrease

**Q.** What about the mATF4 expression level [2, 6] of the same compound?
**A.** marked decrease

**Q.** What about the mChop expression level [2, 6] of the same compound?
**A.** marked decrease

**Q.** Which results are given for O=C(/C=C/c1ccccc1)NC(NC(=S)Nc1cccc2cccnc12)C(Cl)(Cl)Cl (centres unmarked) [Salubrinal]?
**A.** number of ZIKV copies [3]: unaffected compared to controls; mATF4 expression level [2, 6]: marked decrease; mATF5 expression level [2, 6]: marked decrease; mCHAC1 expression level [2, 6]: marked decrease
